Assay results from patent US7176352B1, “Transgenic Lemnaceae” (Yeda Research and Development Company Ltd., priority 1997, dated 2007).

Assays:
[1] = test system: Calli of Spirodela punctata var. Helgm; experiment: Regeneration of plants from Spirodela calli; type: in vivo; conditions: B-5 medium, 1% sucrose, scored after 2 weeks; for Regenerating calli No.: 30 calli
Description: Spirodela calli were maintained on B-5 medium (Table 6 below) supplemented with 1.0% sucrose, 3 mg/l 2IP and 10 mg/l 2,4-D. For regeneration, calli were transferred to B-5 medium supplemented with 1,0% sucrose and 2 mg/l 2IP. Fully regenerated S. punctata plants were efficiently obtained within 1–2 weeks. Spirodela calli and the regenerated plants, were grown at 26° C. under continuous fluorescent light (30 μE m^−2s^−1).
Calli of Spirodela punctata var. Helgm, maintained for 7 to 16 weeks on B-5 medium supplemented with 1% sucrose, […] 2IP and 10 mg/l 2,4-D, were transferred to B-5 medium supplemented with 1% sucrose and different concentrations of 2IP. Regenerated plants were visually scored after 2 weeks.

[2] = test system: Spirodela punctata plants; experiment: GUS expression of transformed plants grown on kanamycin or BASTA supplemented SP medium; type: in vivo; conditions: supplement 2 μg/ml in SP medium, 2 to 5 weeks
Description: The method involved wounding plants, co-cultivating them with 5×10^8 bacteria ml^−1 (A. tumefaciens strain EHA105 harboring Ti plasmid pME504) for 30 min. and vacuum infiltration (30 mbar, for 5–10 min). Transformed Spirodela punctata plants were grown in SP medium (Table 2) supplemented with 2 μg/ml kanamycin for 2 to 5 weeks. Six green plants resistant to kanamycin, and a sampling of bleached ones, were assayed for GUS expression.

| SMILES | Regenerating calli (%) ([1]; 2 IP 2 mg/l) | Regenerating calli No. ([1]; 2 IP 2 mg/l) | Regenerating calli (%) ([1]; 2 IP 10 mg/l) | Regenerating calli No. ([1]; 2 IP 10 mg/l) | GUS expression (% fronds) Bleached plants ([2]; bleached plants) [% fronds] | GUS expression (% fronds) Green plants ([2]; green resistant plants) [% fronds] |
| --- | --- | --- | --- | --- | --- | --- |
| CC(C)=CCNc1ncnc2nc[nH]c12 [2 IP] | 73 | 22 | 0 | 0 |  |  |
| NC[C@H]1O[C@H](O[C@H]2[C@H](O)[C@@H](O[C@H]3O[C@H](CO)[C@@H](O)[C@H](N)[C@H]3O)[C@H](N)C[C@@H]2N)[C@H](O)[C@@H](O)[C@@H]1O [Kanamycin] |  |  |  |  | 0 | 83 |
